The text below walks through data of US20130029858A1, “Method of Drug Screening through Quantitative Detection by Atomic Force Microscopy and Effective Protein Chips Development through Method Thereof” (NATIONAL APPLIED RESEARCH LABORATORIES, priority 2011, published 2013).

This experiment has as its target CD28/CD80 binding (Homo sapiens, UniProt P10747). The experiment can be described thus: AFM measurement of binding force between imm-CD28 on chips and afm-CD80 on probe, blocking by drug. An excerpt:
(a) Immobilizing receptor and ligand [11]: At least one receptor is immobilized on a surface of each one of a plurality of chips and at least one ligand to the receptor is immobilized on a surface of a probe of an AFM. Therein, the chip can be extended to a micro-array chip immobilized with different kinds of receptors.
(b) Binding drug to receptor [12]: A drug is flowed through the chip to bind the drug to the receptor.
(c) Measuring binding force: The AFM is used to processing point-to-point detection for acquiring blocking effect by the drug according to the binding forces between the receptor and the ligand. If the binding force between the drug and the receptor is bigger than the binding force between the receptor and the ligand, the drug is identified as capable of breaking the bond between the receptor and the ligand, vice versa.
Take immuno-suppressive agent as an example. In FIG. 2, a receptor of T-cell membrane, CD28, is immobilized on chips, which is a protein labeled as imm-CD28 [21]. A ligand to CD28, ligand-CD80, is immobilized on a probe of an AFM, which is a receptor on immune B-cell membrane and is labeled as afm-CD80 [31]. Since the binding between CD80 and CD28 is related to human anaphylactic reaction, a small-molecule drug can be applied to block the binding between CD28 and CD80 for reducing immuno-reaction and anaphylactic reaction if the binding force between the drug and CD28 is bigger than that between CD80 and CD28.
Take an immuno-suppressive drug candidate, cynarin, as an example. The imm-CD28 [21] is immobilized on the chips and the afm-CD80 [31] is immobilized on the probe. Then the drug candidate, cynarin, is flowed through the chips to be bond with imm-CD28 [21] and separated from other components. In FIG. 3, a binding force (q1) between CD28 and CD80 on afm-CD80 [31] is great before adding cynarin. After adding the effective immuno-suppressive drug candidate 3, cynarin, the bond between CD28 and CD80 is blocked to form a very small binding force (q2). That is, q1>>q2. […]

CD28/CD80 binding, sequence (P10747 19-152 limits assumed): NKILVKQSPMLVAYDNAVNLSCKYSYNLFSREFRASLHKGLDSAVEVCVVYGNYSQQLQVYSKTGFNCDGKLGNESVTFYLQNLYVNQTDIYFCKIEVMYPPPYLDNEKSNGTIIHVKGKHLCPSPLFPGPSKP

Consider `O=C(/C=C/c1ccc(O)c(O)c1)O[C@@H]1C[C@@](OC(=O)/C=C/c2ccc(O)c(O)c2)(C(=O)O)C[C@@H](O)[C@@H]1O` [cynarin], for which the “difference between the binding forces before and after adding cynarin (q1−q2)” value (167 pN−90 pN) is “about 77 pN”. Further, the “average binding force between CD28 and CD80 after adding cynarin (q2)” value (after adding cynarin, average of 100 positions on chip, before adding about 167 pN±14 (q1), FIG. 4B) was “about 90 pN”. The “difference between the binding forces before and after adding cynarin, percent” value (relative to q1 167 pN) is on record as about 46%.
